We go through 15 compounds from patent publication US20220402862A1 (Intellia Therapeutics, Inc., priority 2019, published 2022).

Common to all, as to assay type: physicochemical
Series [1] is described as follows: pKa measurement of unformulated amine lipid (fluorescence, method of Jayaraman et al.). The following applies: 100 μM in 0.1 M phosphate buffer, pH 2.0-12.0. How it is done: The pKa of each amine lipid was determined according to the method in Jayaraman, et al. (Angewandte Chemie, 2012) with the following adaptations. […] Lipid was diluted to 100 μM in 0.1 M phosphate buffer (Boston Bioproducts) where the pH ranged from 2.0-12.0. Fluorescence intensity was measured using excitation and emission wavelengths of 321 nm and 448 nm.

A short description of series [2]: RNA encapsulation efficiency of LNPs (Ribogreen fluorescence assay). The following applies: LNP, sg:mRNA 1:1, N/P about 6, amine lipid/DSPC/cholesterol/PEG-2k-DMG 50/9/38/3; Table 2, Experiments 2-20. How it is done:
A fluorescence-based assay (Ribogreen®, ThermoFisher Scientific) is used to determine total RNA concentration and free RNA. Encapsulation efficiency is calculated as (Total RNA-Free RNA)/Total RNA. LNP samples are diluted appropriately with 1× TE buffer containing 0.2% Triton-X 100 to determine total RNA or 1× TE buffer to determine free RNA. Standard curves are prepared by utilizing the starting RNA solution used to make the compositions and diluted in 1× TE buffer +/− 0.2% Triton-X 100. Diluted RiboGreen® dye (according to the manufacturer's instructions) is then added to each of the standards and samples and allowed to incubate for approximately 10 minutes at room temperature, in the absence of light. A SpectraMax M5 Microplate Reader (Molecular Devices) is used to read the samples with excitation, auto cutoff and emission wavelengths set to 488 nm, 515 nm, and 525 nm respectively. Total RNA and free RNA are determined from the appropriate standard curves.
Encapsulation efficiency is calculated as (Total RNA-Free RNA)/Total RNA. The same procedure may be used for determining the encapsulation efficiency of a DNA-based cargo component. In a fluorescence-based assay, for single-strand DNA Oligreen Dye may be used, and for double-strand DNA, Picogreen Dye. Alternatively, the total RNA concentration can be determined by a reverse-phase ion-pairing (RP-IP) HPLC method. Triton X-100 is used to disrupt the LNPs, releasing the RNA. The RNA is then separated from the lipid components chromatographically by RP-IP HPLC and quantified against a standard curve using UV absorbance at 260 nm.

The nature of series [3]: Dynamic light scattering of LNPs: Z-average diameter, number average diameter, PDI. The note with it: LNP, sg:mRNA 1:1, N/P about 6, 50/9/38/3; Table 2, Experiments 2-20. How it is done:
Dynamic Light Scattering (“DLS”) is used to characterize the polydispersity index (“PDI”) and size of the LNPs of the present disclosure. DLS measures the scattering of light that results from subjecting a sample to a light source. PDI, as determined from DLS measurements, represents the distribution of particle size (around the mean particle size) in a population, with a perfectly uniform population having a PDI of zero.
LNP compositions are analyzed for average particle size, polydispersity index (PDI), total RNA content, encapsulation efficiency of RNA, and zeta potential. LNP compositions may be further characterized by lipid analysis, AF4-MALS, NTA, and/or cryo-EM. Average particle size and polydispersity are measured by dynamic light scattering (DLS) using a Malvern Zetasizer DLS instrument or Wyatt NanoStar. LNP samples were diluted with PBS buffer prior to being measured by DLS. Z-average diameter which is an intensity-based measurement of average particle size is reported along with number average diameter and PDI. A Malvern Zetasizer or Wyatt NanoStar instrument is also used to measure the zeta potential of the LNP. Samples are diluted 1:17 (50 μL into 800 μL) in 0.1× PBS, pH 7.4 prior to measurement.

A word on the pKa: it is the negative logarithm of the acid dissociation constant. High values mean a group that holds its proton tightly, low ones a group that gives up its proton readily. The compound `CCCCC/C=C\C/C=C\CCCCCCCC(=O)OCC(COC(=O)CCC(OCCCCCCCC)OCCCCCCCC)OC(=O)OCCCN(CC)CC` (centres unmarked) [Compound 97, 3-((4,4-bis(octyloxy)butanoyl)oxy)-2-(((3-(diethylamino)propoxy)carbonyl)oxy)propyl (9Z,12Z)-octadeca-9,12-dienoate] registered a pKa in series [1] of 6.09. Further, the “Encapsulation (%)” value in series [2] turned out to be 98%. For the same compound, in series [3], the “Number mean (nm)” value is 55.14 nm, the PDI came out at 0.037 and the “Z-avg (nm)” value was 68.66 nm.

As to `CCCCC/C=C\C/C=C\CCCCCCCC(=O)OCC(COC(=O)CCCC(CCCCCCC)CCCCCCC)COC(=O)OCCCN(CC)CC` (centres unmarked) [Compound 67, 3-(((3-(diethylamino)propoxy)carbonyl)oxy)-2-(((5-heptyldodecanoyl)oxy)methyl)propyl (9Z,12Z)-octadeca-9,12-dienoate], the pKa in series [1] was 6.19. The “Encapsulation (%)” value in series [2] was 99%. In addition, in series [3], the “Number mean (nm)” value stood at 56.56 nm, the PDI is 0.025 and the “Z-avg (nm)” value amounted to 69.85 nm.

`CCCCC/C=C\C/C=C\CCCCCCCC(=O)OCC(COC(=O)CC(CCCCCCCC)CCCCCCCC)COC(=O)OCCCN(CC)CC` (centres unmarked) [Compound 66, 3-(((3-(diethylamino)propoxy)carbonyl)oxy)-2-(((3-octylundecanoyl)oxy)methyl)propyl (9Z,12Z)-octadeca-9,12-dienoate]: the pKa in series [1] worked out at 6.06. The “Encapsulation (%)” value in series [2] was found to be 98%. In series [3], the “Number mean (nm)” value is reported as 44.03 nm, the PDI stood at 0.071 and the “Z-avg (nm)” value is on record as 58.54 nm.

The compound `CCCCC/C=C\C/C=C\CCCCCCCC(=O)OCC(COCCN(CC)CC)COC(=O)CCC(OCCCCCCCC)OCCCCCCCC` (centres unmarked) [Compound 98, 3-((4,4-bis(octyloxy)butanoyl)oxy)-2-((2-(diethylamino)ethoxy)methyl)propyl (9Z,12Z)-octadeca-9,12-dienoate] yielded a pKa in series [1] of 6.4. Also, in series [2], the “Encapsulation (%)” value was found to be 99%. Further, in series [3], the “Number mean (nm)” value worked out at 57 nm, the PDI is recorded as 0.02 and the “Z-avg (nm)” value is reported as 70 nm.

`CCCCC/C=C\C/C=C\CCCCCCCC(=O)OCC(COC(=O)OCCCN(CC)CC)COC(=O)C(CCCCCC)CCCCCCCC` (centres unmarked) [Compound 65, 3-(((3-(diethylamino)propoxy)carbonyl)oxy)-2-(((2-hexyldecanoyl)oxy)methyl)propyl (9Z,12Z)-octadeca-9,12-dienoate]: the pKa in series [1] came out at 5.88. In addition, in series [2], the “Encapsulation (%)” value is given as 98%. Moreover, in series [3], the “Number mean (nm)” value is listed as 55.76 nm, the PDI came out at 0.034 and the “Z-avg (nm)” value is 70.19 nm.

In series [1], `CCCCCC/C=C\COC(=O)CCCCCCCCCCCC(=O)OCC(COC(=O)CCC(OCCCCCCCC)OCCCCCCCC)COC(=O)OCCCN(CC)CC` (centres unmarked) [Compound 70, (Z)-1-(3-((4,4-bis(octyloxy)butanoyl)oxy)-2-((((3-(diethylamino)propoxy)carbonyl)oxy)methyl)propyl) 13-(non-2-en-1-yl) tridecanedioate] showed a pKa of 6.02. Moreover, in series [2], the “Encapsulation (%)” value is 98%. Further, in series [3], the “Number mean (nm)” value is on record as 66.78 nm, the PDI was found to be 0.017 and the “Z-avg (nm)” value came to 83.47 nm.

In series [1], `CCCCC/C=C\C/C=C\CCCCCCCC(=O)OCC(COC(=O)CCCC(=O)OC(CCCCCCCC)CCCCCCCC)COC(=O)OCCCN(CC)CC` (centres unmarked) [Compound 63, 3-(((3-(diethylamino)propoxy)carbonyl)oxy)-2-((((9Z,12Z)-octadeca-9,12-dienoyl)oxy)methyl)propyl heptadecan-9-yl glutarate] came in with a pKa of 6.09. Besides, in series [2], the “Encapsulation (%)” value is recorded as 98%. In series [3], the “Number mean (nm)” value was 64.05 nm, the PDI amounted to 0.019 and the “Z-avg (nm)” value turned out to be 79.37 nm.

For the compound `CCCCCC/C=C\COC(=O)CCCCCCCCCC(=O)OCC(COC(=O)CCC(OCCCCCCCC)OCCCCCCCC)COC(=O)OCCCN(CC)CC` (centres unmarked) [Compound 69, (Z)-1-(3-((4,4-bis(octyloxy)butanoyl)oxy)-2-((((3-(diethylamino)propoxy)carbonyl)oxy)methyl)propyl) 11-(non-2-en-1-yl) undecanedioate], the pKa in series [1] came out at 6.18. Moreover, the “Encapsulation (%)” value in series [2] was 98%. Besides, in series [3], the “Number mean (nm)” value stood at 68.12 nm, the PDI is 0.026 and the “Z-avg (nm)” value amounted to 85.11 nm.

As for `CCCCCCCCOC(CCC(=O)OCC(COC(=O)CCCCCCCC(=O)OCCCCCC)COC(=O)OCCCN(CC)CC)OCCCCCCCC` (centres unmarked) [Compound 57, 1-(3-((4,4-bis(octyloxy)butanoyl)oxy)-2-((((3-(diethylamino)propoxy)carbonyl)oxy)methyl)propyl) 9-hexyl nonanedioate], in series [1], the pKa was determined as 6.59. Further, the “Encapsulation (%)” value in series [2] came out at 89%. In series [3], the “Number mean (nm)” value worked out at 83.41 nm, the PDI was found to be 0.011 and the “Z-avg (nm)” value was 102 nm.

In turn, `CCCCC/C=C\C/C=C\CCCCCCCC(=O)OCC(COC(=O)CCCCCC(CCCCCC)CCCCCC)COC(=O)OCCCN(CC)CC` (centres unmarked) [Compound 68, 3-(((3-(diethylamino)propoxy)carbonyl)oxy)-2-(((7-hexyltridecanoyl)oxy)methyl)propyl (9Z,12Z)-octadeca-9,12-dienoate] registered a pKa in series [1] of 6.1. For the same compound, in series [2], the “Encapsulation (%)” value is given as 98%. In addition, in series [3], the “Number mean (nm)” value is 60.04 nm, the PDI was 0.008 and the “Z-avg (nm)” value is recorded as 72.71 nm.

The compound `CCCCC/C=C\C/C=C\CCCCCCCC(=O)OCC(COC(=O)CCCCCC(=O)OC(CCCCCCCC)CCCCCCCC)COC(=O)OCCCN(CC)CC` (centres unmarked) [Compound 64, 1-(3-(((3-(diethylamino)propoxy)carbonyl)oxy)-2-((((9Z,12Z)-octadeca-9,12-dienoyl)oxy)methyl)propyl) 7-(heptadecan-9-yl) heptanedioate] returned a pKa in series [1] of 6.08. For the same compound, the “Encapsulation (%)” value in series [2] was 98%. Also, in series [3], the “Number mean (nm)” value was found to be 69.25 nm, the PDI is 0.032 and the “Z-avg (nm)” value is on record as 85.16 nm.

Take `CCCCC/C=C\C/C=C\CCCCCCCC(=O)OCC(COC(=O)CCC(OCCCCCCCC)OCCCCCCCC)COC(=O)NCC1CCN(C)C1` (centres unmarked) [Compound 43, 3-((4,4-bis(octyloxy)butanoyl)oxy)-2-(((((1-methylpyrrolidin-3-yl)methyl)carbamoyl)oxy)methyl)propyl (9Z,12Z)-octadeca-9,12-dienoate]: the pKa in series [1] was 8.6.

For the compound `CCCCC/C=C\C/C=C\CCCCCCCC(=O)OCC(COC(=O)CCC(OCCCCCCCC)OCCCCCCCC)COC(=O)OCC1CN(CC)C1` (centres unmarked) [Compound 50, 3-((4,4-bis(octyloxy)butanoyl)oxy)-2-(((((1-ethylazetidin-3-yl)methoxy)carbonyl)oxy)methyl)propyl (9Z,12Z)-octadeca-9,12-dienoate], the pKa in series [1] is 5.2.

In the case of `CCCCC/C=C\C/C=C\CCCCCCCC(=O)OCC(COC(=O)CCC(OCCCCCCCC)OCCCCCCCC)COC(=O)NCCN(C)C` (centres unmarked) [Compound 34, 3-((4,4-bis(octyloxy)butanoyl)oxy)-2-((((2-(dimethylamino)ethyl)carbamoyl)oxy)methyl)propyl (9Z,12Z)-octadeca-9,12-dienoate], in series [1], the pKa amounted to 7.84.

`CCCCCCCCCCOC(=O)CCCCCCCC(=O)OCC(COC(=O)CCCCCC(=O)OC(CCCCCCCC)CCCCCCCC)COC(=O)NCCN(CC)CC` (centres unmarked) [Compound 81, 1-decyl 9-(3-(((2-(diethylamino)ethyl)carbamoyl)oxy)-2-(((7-(heptadecan-9-yloxy)-7-oxoheptanoyl)oxy)methyl)propyl) nonanedioate] gave a pKa in series [1] of 6.65.
